Reference: ChEMBL document CHEMBL1129926, “D4 dopamine receptor-selective compounds from the Chinese plant Phoebe chekiangensis” (Bioorg Med Chem Lett, 1997)

Assays:
D(4) dopamine receptor [1] = molecular target: T1, D(4) dopamine receptor (Homo sapiens, UniProt P21917); assay: Potency was measured by the displacement of [3H]-spiperone binding to human D4 dopaminergic receptor
T1 sequence (P21917 whole entry): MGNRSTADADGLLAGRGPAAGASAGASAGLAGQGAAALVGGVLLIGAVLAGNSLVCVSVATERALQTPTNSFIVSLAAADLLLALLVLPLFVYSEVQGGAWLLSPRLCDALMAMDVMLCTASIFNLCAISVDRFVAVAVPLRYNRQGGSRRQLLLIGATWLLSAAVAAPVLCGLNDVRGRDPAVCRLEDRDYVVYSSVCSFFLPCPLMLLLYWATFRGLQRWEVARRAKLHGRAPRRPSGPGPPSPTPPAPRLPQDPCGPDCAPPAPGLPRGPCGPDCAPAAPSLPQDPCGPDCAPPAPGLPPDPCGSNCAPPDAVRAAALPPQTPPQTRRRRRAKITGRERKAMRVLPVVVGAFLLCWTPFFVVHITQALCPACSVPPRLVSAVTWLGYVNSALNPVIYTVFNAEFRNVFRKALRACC

D(2) dopamine receptor = D(2) dopamine receptor (Homo sapiens, UniProt P14416); assay: Inhibitory concentration against binding of [3H]spiperone to human D2 dopaminergic receptor
Chain of D(2) dopamine receptor (P14416 whole entry): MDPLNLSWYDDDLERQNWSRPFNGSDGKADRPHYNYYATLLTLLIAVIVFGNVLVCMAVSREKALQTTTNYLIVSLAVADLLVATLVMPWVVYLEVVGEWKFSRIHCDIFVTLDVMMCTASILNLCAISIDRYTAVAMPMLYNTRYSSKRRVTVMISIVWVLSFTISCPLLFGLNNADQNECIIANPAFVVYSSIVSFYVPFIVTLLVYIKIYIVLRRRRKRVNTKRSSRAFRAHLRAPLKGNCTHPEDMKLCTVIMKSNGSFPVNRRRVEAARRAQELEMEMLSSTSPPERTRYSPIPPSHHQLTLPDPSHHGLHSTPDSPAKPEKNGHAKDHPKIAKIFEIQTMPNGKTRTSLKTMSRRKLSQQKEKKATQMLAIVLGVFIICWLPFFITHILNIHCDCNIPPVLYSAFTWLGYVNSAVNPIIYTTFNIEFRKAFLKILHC

D(4) dopamine receptor [2] = molecular target: T1, D(4) dopamine receptor; assay: Inhibitory concentration against binding of [3H]spiperone to human D4 dopaminergic receptor

Row | Ki (D(4) dopamine receptor [1]) | IC50 (D(2) dopamine receptor) | IC50 (D(4) dopamine receptor [2]) | Structure (SMILES)
1 | 500 nM | 1030 nM | 39200 nM | Oc1ccc2c(c1)CCN2
2 | 350 nM | – | – | CN1CCc2cc(O)c(O)cc2C1Cc1ccc(O)c(O)c1 (centres undefined)
3 | 1200 nM | – | 47500 nM | OC[C@H]1O[C@H](Oc2ccc(CC3NCCc4cc(O)c(O)cc43)cc2)[C@H](O)[C@H](O)[C@H]1O (some centres undefined)
4 | 3100 nM | – | – | Oc1ccc(CC2NCCc3cc(O)c(O)cc32)cc1 (centres undefined) [HIGENAMINE]

Row | Structure (SMILES) | Ki (D(4) dopamine receptor [1]) | IC50 (D(2) dopamine receptor) | IC50 (D(4) dopamine receptor [2])
5 | Oc1ccc(CC2NCCc3cc(O)c(O)cc32)cc1O (centres undefined) | 2500 nM | – | –
6 | CC1NCCc2cc(O)c(O)cc21 (centres undefined) | 6400 nM | – | –
